Series [1] is described as follows: Cytotoxicity against human SH-SY5Y cells assessed as cell viability at 30 uM after 24 hrs by MTT assay relative to control. It is filed as cell-based. The following applies: read-out: Activity.
Series [2] has as its target RAC-alpha serine/threonine-protein kinase (Homo sapiens) (UniProt P31749). The series is described as follows: Inhibition of PKBalpha (unknown origin) at 0.5 uM relative to control.
Series [3] addresses Aurora kinase B (Homo sapiens) (UniProt Q96GD4). The series is described as follows: Inhibition of Aurora B (unknown origin) at 0.5 uM relative to control.
For series [4], the target named is Protein kinase C alpha type (Homo sapiens) (UniProt P17252). The experiment in a line: Inhibition of PKCalpha (unknown origin) at 0.5 uM relative to control.
Series [5] deals with Dual specificity tyrosine-phosphorylation-regulated kinase 1A (Homo sapiens, UniProt Q13627). The experiment in a line: Inhibition of Dyrk1A (unknown origin) using Woodtide as substrate after 30 mins by P81 membrane assay in presence of [33P]-g-ATP.
For series [6], the target named is Casein kinase I isoform alpha (Homo sapiens) (UniProt P48729). The experiment in a line: Inhibition of CK1 (unknown origin) at 0.5 uM relative to control.
Series [7] addresses Glycogen synthase kinase-3 beta (Homo sapiens) (UniProt P49841). The experiment in a line: Inhibition of GSK3beta (unknown origin) at 0.5 uM relative to control.
The target of series [8] is Tyrosine-protein kinase ABL1 (Homo sapiens) (UniProt P00519). The series is described as follows: Inhibition of Abl (unknown origin) at 0.5 uM relative to control.
In series [9] the target is Insulin receptor (Homo sapiens) (UniProt P06213). The experiment in a line: Inhibition of IR (unknown origin) at 0.5 uM relative to control.
For series [10], the target named is AMP-activated protein kinase, AMPK (Homo sapiens) (UniProt P54646+O43741+P54619+Q9UGJ0+Q9Y478+Q13131+Q9UGI9). The series is described as follows: Inhibition of AMPK (unknown origin) at 0.5 uM relative to control. It is filed as protein-complex assay.
Another series has as its system SH-SY5Y. The series is described as follows: Neuroprotective activity against glutamate-induced neurotoxicity in human SH-SY5Y cells assessed as cell viability at 10 uM incubated for 30 mins prior to glutamate challenge measured after 24 hrs by MTT assay (reference value: 73.8 +/- 4.5%). It is filed as functional. To be noted: read-out: Activity.

Molecules are shown by their SMILES.

The inhibition is the percentage by which the read-out fell short of the control. A high value points to strong suppression. A word on the IC50: it is the concentration needed to halve the response being measured.

Sequence of Tyrosine-protein kinase ABL1 (Homo sapiens) (P00519 whole entry): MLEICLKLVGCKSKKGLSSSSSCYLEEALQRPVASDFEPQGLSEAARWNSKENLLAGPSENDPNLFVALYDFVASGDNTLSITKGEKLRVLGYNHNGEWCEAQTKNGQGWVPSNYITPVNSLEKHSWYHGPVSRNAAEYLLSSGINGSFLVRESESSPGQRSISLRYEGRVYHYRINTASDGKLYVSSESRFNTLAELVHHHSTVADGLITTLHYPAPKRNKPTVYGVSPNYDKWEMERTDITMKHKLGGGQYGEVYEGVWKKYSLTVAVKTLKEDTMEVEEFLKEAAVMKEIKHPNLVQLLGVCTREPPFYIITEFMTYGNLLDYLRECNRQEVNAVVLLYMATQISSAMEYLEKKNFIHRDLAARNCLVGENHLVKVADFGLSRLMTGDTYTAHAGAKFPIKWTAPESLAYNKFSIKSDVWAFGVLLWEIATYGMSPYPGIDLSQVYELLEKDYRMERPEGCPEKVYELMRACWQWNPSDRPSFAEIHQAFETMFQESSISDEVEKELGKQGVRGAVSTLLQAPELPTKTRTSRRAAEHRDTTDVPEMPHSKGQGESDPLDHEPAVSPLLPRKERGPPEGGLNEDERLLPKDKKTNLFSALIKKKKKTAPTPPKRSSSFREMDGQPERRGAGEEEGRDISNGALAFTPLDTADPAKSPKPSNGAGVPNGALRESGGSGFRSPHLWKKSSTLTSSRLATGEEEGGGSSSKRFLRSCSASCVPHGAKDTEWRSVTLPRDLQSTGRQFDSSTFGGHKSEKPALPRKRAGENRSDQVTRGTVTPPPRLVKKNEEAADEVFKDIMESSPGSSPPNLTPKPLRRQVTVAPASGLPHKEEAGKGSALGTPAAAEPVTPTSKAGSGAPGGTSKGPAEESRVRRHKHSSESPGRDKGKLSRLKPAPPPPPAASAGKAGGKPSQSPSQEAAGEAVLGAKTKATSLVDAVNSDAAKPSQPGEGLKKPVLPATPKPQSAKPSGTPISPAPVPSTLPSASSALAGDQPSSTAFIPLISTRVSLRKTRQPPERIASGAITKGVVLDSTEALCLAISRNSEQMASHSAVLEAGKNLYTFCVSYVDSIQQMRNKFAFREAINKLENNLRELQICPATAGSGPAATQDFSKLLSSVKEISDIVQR
Sequence of Insulin receptor (Homo sapiens) (P06213 28-758 limits assumed): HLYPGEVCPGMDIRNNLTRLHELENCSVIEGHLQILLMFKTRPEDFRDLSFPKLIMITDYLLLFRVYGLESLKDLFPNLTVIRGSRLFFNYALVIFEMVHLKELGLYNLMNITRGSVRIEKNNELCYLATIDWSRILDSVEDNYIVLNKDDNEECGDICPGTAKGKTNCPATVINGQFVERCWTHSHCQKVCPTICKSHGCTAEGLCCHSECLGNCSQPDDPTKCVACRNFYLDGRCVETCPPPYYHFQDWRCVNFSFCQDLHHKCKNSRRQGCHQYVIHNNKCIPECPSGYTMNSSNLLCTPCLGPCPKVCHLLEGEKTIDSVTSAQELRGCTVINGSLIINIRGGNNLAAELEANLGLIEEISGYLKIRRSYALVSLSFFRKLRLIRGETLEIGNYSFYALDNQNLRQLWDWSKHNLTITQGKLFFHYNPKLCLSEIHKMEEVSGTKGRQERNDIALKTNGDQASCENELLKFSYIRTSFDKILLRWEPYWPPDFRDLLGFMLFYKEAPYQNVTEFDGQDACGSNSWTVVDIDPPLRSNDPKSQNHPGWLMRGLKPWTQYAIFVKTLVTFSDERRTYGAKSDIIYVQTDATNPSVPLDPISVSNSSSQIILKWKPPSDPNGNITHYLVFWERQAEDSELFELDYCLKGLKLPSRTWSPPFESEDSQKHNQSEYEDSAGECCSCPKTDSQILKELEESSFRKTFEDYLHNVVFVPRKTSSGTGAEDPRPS
Sequence of Insulin receptor (Homo sapiens) (P06213 763-1382 limits assumed): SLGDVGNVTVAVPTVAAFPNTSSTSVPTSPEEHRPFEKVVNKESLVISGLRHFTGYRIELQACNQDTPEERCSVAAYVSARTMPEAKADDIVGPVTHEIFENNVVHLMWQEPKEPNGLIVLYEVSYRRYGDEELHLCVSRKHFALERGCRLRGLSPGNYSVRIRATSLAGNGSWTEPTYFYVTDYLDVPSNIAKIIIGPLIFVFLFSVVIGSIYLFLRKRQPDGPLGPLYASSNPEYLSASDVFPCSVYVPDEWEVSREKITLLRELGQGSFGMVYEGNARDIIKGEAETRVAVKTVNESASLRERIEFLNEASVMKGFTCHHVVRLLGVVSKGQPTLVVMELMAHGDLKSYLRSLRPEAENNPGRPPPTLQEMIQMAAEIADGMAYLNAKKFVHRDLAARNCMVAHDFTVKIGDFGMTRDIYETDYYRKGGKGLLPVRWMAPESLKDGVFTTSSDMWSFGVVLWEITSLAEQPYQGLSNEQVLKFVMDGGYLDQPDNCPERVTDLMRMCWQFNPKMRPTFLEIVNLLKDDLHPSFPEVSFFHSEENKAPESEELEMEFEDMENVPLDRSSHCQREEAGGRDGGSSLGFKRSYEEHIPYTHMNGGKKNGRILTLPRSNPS
Sequence of Glycogen synthase kinase-3 beta (Homo sapiens) (P49841 whole entry, looked up): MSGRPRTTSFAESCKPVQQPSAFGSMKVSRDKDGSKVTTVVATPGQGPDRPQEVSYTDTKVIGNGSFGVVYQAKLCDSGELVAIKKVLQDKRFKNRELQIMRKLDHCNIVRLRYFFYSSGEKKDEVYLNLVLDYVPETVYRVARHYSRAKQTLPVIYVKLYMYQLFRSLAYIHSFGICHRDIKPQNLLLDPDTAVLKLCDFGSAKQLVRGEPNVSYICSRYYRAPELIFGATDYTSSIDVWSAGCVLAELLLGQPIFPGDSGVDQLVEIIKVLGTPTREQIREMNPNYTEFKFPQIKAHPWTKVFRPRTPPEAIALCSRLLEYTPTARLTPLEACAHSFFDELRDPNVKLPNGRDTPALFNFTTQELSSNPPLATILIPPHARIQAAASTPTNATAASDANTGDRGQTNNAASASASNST
Sequence of RAC-alpha serine/threonine-protein kinase (Homo sapiens) (P31749 whole entry): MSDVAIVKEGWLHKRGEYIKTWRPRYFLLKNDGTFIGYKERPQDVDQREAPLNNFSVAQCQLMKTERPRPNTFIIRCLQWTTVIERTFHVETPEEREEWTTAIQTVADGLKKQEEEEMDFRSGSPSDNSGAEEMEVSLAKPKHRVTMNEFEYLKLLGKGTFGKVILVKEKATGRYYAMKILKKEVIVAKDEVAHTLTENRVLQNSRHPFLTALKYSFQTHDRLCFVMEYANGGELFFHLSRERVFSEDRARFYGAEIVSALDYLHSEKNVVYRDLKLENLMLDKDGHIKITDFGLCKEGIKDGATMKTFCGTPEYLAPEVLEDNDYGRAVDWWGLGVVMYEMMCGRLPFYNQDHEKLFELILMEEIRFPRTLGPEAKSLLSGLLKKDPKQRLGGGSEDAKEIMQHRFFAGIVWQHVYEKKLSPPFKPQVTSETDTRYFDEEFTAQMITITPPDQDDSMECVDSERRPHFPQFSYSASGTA
Sequence of Aurora kinase B (Homo sapiens) (Q96GD4 whole entry): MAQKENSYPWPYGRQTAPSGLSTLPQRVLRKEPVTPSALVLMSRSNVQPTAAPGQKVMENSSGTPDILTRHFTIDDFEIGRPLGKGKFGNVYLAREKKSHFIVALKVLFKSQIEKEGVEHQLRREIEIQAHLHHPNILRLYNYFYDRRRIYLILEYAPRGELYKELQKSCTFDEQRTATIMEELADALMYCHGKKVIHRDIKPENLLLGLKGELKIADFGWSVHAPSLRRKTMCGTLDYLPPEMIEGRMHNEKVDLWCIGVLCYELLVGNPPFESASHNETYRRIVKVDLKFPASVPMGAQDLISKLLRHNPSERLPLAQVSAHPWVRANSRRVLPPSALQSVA
Sequence of Casein kinase I isoform alpha (Homo sapiens) (P48729 2-337 limits assumed): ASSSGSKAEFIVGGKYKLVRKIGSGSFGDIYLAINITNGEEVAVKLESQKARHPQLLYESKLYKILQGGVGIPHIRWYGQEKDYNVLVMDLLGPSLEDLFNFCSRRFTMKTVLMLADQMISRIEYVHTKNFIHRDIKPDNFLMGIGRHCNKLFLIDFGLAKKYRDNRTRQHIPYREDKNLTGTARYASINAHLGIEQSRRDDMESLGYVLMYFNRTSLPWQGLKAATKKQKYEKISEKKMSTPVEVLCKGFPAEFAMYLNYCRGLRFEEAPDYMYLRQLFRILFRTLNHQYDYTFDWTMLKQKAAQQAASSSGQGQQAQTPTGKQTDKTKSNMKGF

Take `Nc1nccc(-c2cn(C(=O)N3CCOCC3)c3ccc(Br)cc23)n1`: the viability at 24 h, 30 µM in series [1] is 87%. Moreover, the inhibition was 16.4% in series [2]; 0% in series [3]; 26.5% in series [4]; 13.8% in series [6]; 22.7% in series [7]; 3% in series [8]. Also, the inhibition in series [9] was 11.1%; in series [10], 4.4%. Further, in series [5], the IC50 worked out at 500 nM. Also, the viability at 10 µM in the series with SH-SY5Y is 82.5%.

Source of the values: ChEMBL document CHEMBL3596148, “Meridianin derivatives as potent Dyrk1A inhibitors and neuroprotective agents” (Bioorg Med Chem Lett, 2015).
